Test results from PubChem BioAssay AID1919007 (Molecular Pharmacology Branch, DTP, NCI, 2023).

Tested on: A498 complex spheroids with HUVEC/MSC, growth
Experiment: Anticancer human tumor A498 cell line growth inhibition [AhR];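 also: seven day exposure starting three days after spheroid seeding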;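 as to viability, T/C: luminescence signal used as a surrogate for viable cells; luminescence viability scaled so 100% equals DMSO vehicle wells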
Conditions: for IC50: curve of first compound; for viability, T/C: stronger effect = lower value
Summary of the method: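 Spheroids combined tumor cells with HUVEC endothelial cells and human MSCs as stroma. AhR antagonists were paired with standard or investigational drugs, each dosed in half-log steps down from near clinical Cmax, or from 10 microM where Cmax was unknown.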

[1] = second compound 0.1 µM, first compound 0.0316 µM
[2] = second compound 0.1 µM, first compound 0.1 µM
[3] = second compound 0.1 µM, first compound 0.316 µM
[4] = second compound 0.1 µM, first compound 1 µM
[5] = second compound 0.1 µM, first compound 3.16 µM
[6] = second compound 0.1 µM, first compound 10 µM
[7] = second compound 0.316 µM, first compound 0.0316 µM
[8] = second compound 0.316 µM, first compound 0.1 µM
[9] = second compound 0.316 µM, first compound 0.316 µM
[10] = second compound 0.316 µM, first compound 1 µM
[11] = second compound 0.316 µM, first compound 3.16 µM
[12] = second compound 0.316 µM, first compound 10 µM
[13] = second compound 1 µM, first compound 0.0316 µM
[14] = second compound 1 µM, first compound 0.1 µM
[15] = second compound 1 µM, first compound 0.316 µM
[16] = second compound 1 µM, first compound 1 µM
[17] = second compound 1 µM, first compound 3.16 µM
[18] = second compound 1 µM, first compound 10 µM
[19] = second compound 3.16 µM, first compound 0.0316 µM
[20] = second compound 3.16 µM, first compound 0.1 µM
[21] = second compound 3.16 µM, first compound 0.316 µM
[22] = second compound 3.16 µM, first compound 1 µM
[23] = second compound 3.16 µM, first compound 3.16 µM
[24] = second compound 3.16 µM, first compound 10 µM
[25] = second compound 10 µM, first compound 0.0316 µM
[26] = second compound 10 µM, first compound 0.1 µM
[27] = second compound 10 µM, first compound 0.316 µM
[28] = second compound 10 µM, first compound 1 µM
[29] = second compound 10 µM, first compound 3.16 µM
[30] = second compound 10 µM, first compound 10 µM
[31] = second compound 0.1 µM, first compound 0.00949 µM
[32] = second compound 0.1 µM, first compound 0.03 µM
[33] = second compound 0.1 µM, first compound 0.0949 µM
[34] = second compound 0.1 µM, first compound 0.3 µM
[35] = second compound 0.316 µM, first compound 0.00949 µM
[36] = second compound 0.316 µM, first compound 0.03 µM
[37] = second compound 0.316 µM, first compound 0.0949 µM
[38] = second compound 0.316 µM, first compound 0.3 µM
[39] = second compound 1 µM, first compound 0.00949 µM
[40] = second compound 1 µM, first compound 0.03 µM
[41] = second compound 1 µM, first compound 0.0949 µM
[42] = second compound 1 µM, first compound 0.3 µM
[43] = second compound 3.16 µM, first compound 0.00949 µM
[44] = second compound 3.16 µM, first compound 0.03 µM
[45] = second compound 3.16 µM, first compound 0.0949 µM
[46] = second compound 3.16 µM, first compound 0.3 µM
[47] = second compound 10 µM, first compound 0.00949 µM
[48] = second compound 10 µM, first compound 0.03 µM
[49] = second compound 10 µM, first compound 0.0949 µM
[50] = second compound 10 µM, first compound 0.3 µM

CC1(C)CCC(CN2CCN(c3ccc(C(=O)NS(=O)(=O)c4ccc(NCC5CCOCC5)c([N+](=O)[O-])c4)c(Oc4cnc5[nH]ccc5c4)c3)CC2)=C(c2ccc(Cl)cc2)C1 + Cc1ccccc1N=Nc1ccc(NC(=O)c2ccnn2C)c(C)c1
IC50 (second compound 0.1 µM): 8580 nM
IC50 (second compound 0.316 µM): > 10000 nM
IC50 (second compound 1 µM): 8780 nM
IC50 (second compound 3.16 µM): > 10000 nM
IC50 (second compound 10 µM): 8770 nM
viability, T/C [1]: 88.7%
viability, T/C [2]: 89.5%
viability, T/C [3]: 87.9%
viability, T/C [4]: 86.6%
viability, T/C [5]: 76.8%
viability, T/C [6]: 45.8%
viability, T/C [7]: 99.9%
viability, T/C [8]: 98.2%
viability, T/C [9]: 95.6%
viability, T/C [10]: 87.5%
viability, T/C [11]: 75.9%
viability, T/C [12]: 52.3%
viability, T/C [13]: 84.7%
viability, T/C [14]: 87.4%
viability, T/C [15]: 83.6%
viability, T/C [16]: 72%
viability, T/C [17]: 66.5%
viability, T/C [18]: 47.8%
viability, T/C [19]: 83%
viability, T/C [20]: 86.7%
viability, T/C [21]: 91.3%
viability, T/C [22]: 76.9%
viability, T/C [23]: 66.7%
viability, T/C [24]: 50.5%
viability, T/C [25]: 88.3%
viability, T/C [26]: 86.7%
viability, T/C [27]: 84.6%
viability, T/C [28]: 77.6%
viability, T/C [29]: 78.5%
viability, T/C [30]: 46%

CC1COCCN1c1cc(C2(S(C)(=N)=O)CC2)nc(-c2ccnc3[nH]ccc23)n1 (stereo not given) + Cc1ccccc1N=Nc1ccc(NC(=O)c2ccnn2C)c(C)c1
IC50 (second compound 0.1 µM): 2510 nM
IC50 (second compound 0.316 µM): 2070 nM
IC50 (second compound 1 µM): 1820 nM
IC50 (second compound 3.16 µM): 1880 nM
IC50 (second compound 10 µM): 2030 nM
viability, T/C [1]: 84.6%
viability, T/C [2]: 85.4%
viability, T/C [3]: 84.3%
viability, T/C [4]: 66%
viability, T/C [5]: 46.6%
viability, T/C [6]: 23.2%
viability, T/C [7]: 101%
viability, T/C [8]: 90.5%
viability, T/C [9]: 88.3%
viability, T/C [10]: 68.1%
viability, T/C [11]: 38.9%
viability, T/C [12]: 25.7%
viability, T/C [13]: 81.7%
viability, T/C [14]: 78.2%
viability, T/C [15]: 82.2%
viability, T/C [16]: 61.7%
viability, T/C [17]: 38.2%
viability, T/C [18]: 21.2%
viability, T/C [19]: 83%
viability, T/C [20]: 82.4%
viability, T/C [21]: 77.2%
viability, T/C [22]: 64%
viability, T/C [23]: 38.5%
viability, T/C [24]: 24.2%
viability, T/C [25]: 82.6%
viability, T/C [26]: 81.5%
viability, T/C [27]: 78.7%
viability, T/C [28]: 67.8%
viability, T/C [29]: 39%
viability, T/C [30]: 25%

CCN(c1cc(-c2ccc(CN3CCOCC3)cc2)cc(C(=O)NCc2c(C)cc(C)[nH]c2=O)c1C)C1CCOCC1 + Cc1ccccc1N=Nc1ccc(NC(=O)c2ccnn2C)c(C)c1
IC50 (second compound 0.1 µM): > 3000 nM
IC50 (second compound 0.316 µM): > 3000 nM
IC50 (second compound 1 µM): > 3000 nM
IC50 (second compound 3.16 µM): > 3000 nM
IC50 (second compound 10 µM): > 3000 nM
viability, T/C [31]: 92.6%
viability, T/C [32]: 96.8%
viability, T/C [33]: 94.3%
viability, T/C [34]: 89.7%
viability, T/C (second compound 0.1 µM, first compound 0.949 µM): 93.1%
viability, T/C (second compound 0.1 µM, first compound 3 µM): 98.4%
viability, T/C [35]: 95.4%
viability, T/C [36]: 98.9%
viability, T/C [37]: 98.2%
viability, T/C [38]: 96.8%
viability, T/C (second compound 0.316 µM, first compound 0.949 µM): 96.4%
viability, T/C (second compound 0.316 µM, first compound 3 µM): 104%
viability, T/C [39]: 91.3%
viability, T/C [40]: 92.9%
viability, T/C [41]: 90.8%
viability, T/C [42]: 91.2%
viability, T/C (second compound 1 µM, first compound 0.949 µM): 85.2%
viability, T/C (second compound 1 µM, first compound 3 µM): 91.6%
viability, T/C [43]: 86.7%
viability, T/C [44]: 92.6%
viability, T/C [45]: 91%
viability, T/C [46]: 89.2%
viability, T/C (second compound 3.16 µM, first compound 0.949 µM): 87.7%
viability, T/C (second compound 3.16 µM, first compound 3 µM): 86.3%
viability, T/C [47]: 95.6%
viability, T/C [48]: 91%
viability, T/C [49]: 95%
viability, T/C [50]: 89.5%
viability, T/C (second compound 10 µM, first compound 0.949 µM): 92.5%
viability, T/C (second compound 10 µM, first compound 3 µM): 96.3%

Nc1ncn(C2CC(O)C(CO)S2)c(=O)n1 (stereo not given) + Cc1ccccc1N=Nc1ccc(NC(=O)c2ccnn2C)c(C)c1
IC50 (second compound 0.1 µM): > 300 nM
IC50 (second compound 0.316 µM): > 300 nM
IC50 (second compound 1 µM): > 300 nM
IC50 (second compound 3.16 µM): > 300 nM
IC50 (second compound 10 µM): > 300 nM
viability, T/C (second compound 0.1 µM, first compound 0.000949 µM): 93.5%
viability, T/C (second compound 0.1 µM, first compound 0.003 µM): 97.4%
viability, T/C [31]: 101%
viability, T/C [32]: 89.8%
viability, T/C [33]: 89.9%
viability, T/C [34]: 76.8%
viability, T/C (second compound 0.316 µM, first compound 0.000949 µM): 98.2%
viability, T/C (second compound 0.316 µM, first compound 0.003 µM): 101%
viability, T/C [35]: 93.3%
viability, T/C [36]: 91.6%
viability, T/C [37]: 88.5%
viability, T/C [38]: 78.1%
viability, T/C (second compound 1 µM, first compound 0.000949 µM): 92%
viability, T/C (second compound 1 µM, first compound 0.003 µM): 93.1%
viability, T/C [39]: 91.7%
viability, T/C [40]: 89.2%
viability, T/C [41]: 79.6%
viability, T/C [42]: 80.9%
viability, T/C (second compound 3.16 µM, first compound 0.000949 µM): 89.8%
viability, T/C (second compound 3.16 µM, first compound 0.003 µM): 94.2%
viability, T/C [43]: 97.4%
viability, T/C [44]: 79.3%
viability, T/C [45]: 77.5%
viability, T/C [46]: 71.3%
viability, T/C (second compound 10 µM, first compound 0.000949 µM): 88.2%
viability, T/C (second compound 10 µM, first compound 0.003 µM): 89%
viability, T/C [47]: 87.8%
viability, T/C [48]: 89.1%
viability, T/C [49]: 80.8%
viability, T/C [50]: 75.7%
